From patent US5686421A, “Hydantoin derivates” (Hoechst Aktiengesellschaft, priority 1990, dated 1997)
Where two headings read alike, the source gives them in different places.

System: human GFP (gel-filtered platelets)
Experiment: Inhibition of platelet aggregation, human gel-filtered platelets stimulated with ADP or thrombin
Type: cell-based
Source text: The compounds are particularly tested for their inhibitory action on the aggregation of blood platelets and the adhesion of fibrinogen to blood platelets. Gel-filtered blood platelets from donated human blood are used and are activated with ADP or thrombin.
Inhibition of platelet aggregation to human GFP (gel-filtered platelets) stimulated with adenosine diphosphate (ADP) or thrombin (THR) (Marguerie, Plow and Edgington, J. Biol. Chem. 254 (1979) 5357-5363)

[1] = human GFP stimulated with adenosine diphosphate (ADP), read-out: IC50 (μM) ADP
[2] = human GFP stimulated with thrombin (THR), read-out: IC50 (μM) THR

| Molecule | IC50 [1] | IC50 [2] |
| --- | --- | --- |
| NC(=O)[C@H](CC(=O)O)NC(=O)CN1C(=O)N[C@@H](CCCN=C(N)N)C1=O [[5-(S)-(3-guanidinopropyl)-2,4-dioxo-imidazolidin-3-yl]acetyl-Asp-amide] | 40 µM | 40 µM |
| N=C(N)NCCC[C@H](N)C(=O)NCC(=O)N[C@@H](CC(=O)O)C(N)=O [HArgGlyAspNH2] | 500 µM | 200 µM |
| ZDArgGlyAspNH2 | 100 µM | 80 µM |
| N=C(N)NCCC[C@@H](N)C(=O)NCC(=O)N[C@@H](CC(=O)O)C(N)=O [HDArgGlyAspNH2] | 500 µM | 100 µM |

Further molecules by falling IC50 [1], results first:

| IC50 [1] | IC50 [2] | Molecule |
| --- | --- | --- |
| 20 µM | 20 µM | ZDArgGlyAspNHMbh |
| 20 µM | 15 µM | N=C(N)NCCC[C@H]1NC(=O)N(CC(=O)N[C@@H](CC(=O)O)C(N)=O)C1=O [[5-(R)-(3-guanidino-propyl)-2,4-dioxo-imidazolidin-3-yl]acetyl-L-Asp-amide] |
| 10 µM | 4 µM | COc1ccc(C(NC(=O)[C@H](CC(=O)O)NC(=O)CN2C(=O)N[C@@H](CCCN=C(N)N)C2=O)c2ccc(OC)cc2)cc1 [[5-(S)-(3-guanidino-propyl)-2,4-dioxo-imidazolidin-3-yl]acetyl-Asp 4,4'-dimethoxybenzhydrylamide] |
| 4 µM | 3 µM | COc1ccc(C(NC(=O)[C@H](CC(=O)O)NC(=O)CN2C(=O)N[C@H](CCCN=C(N)N)C2=O)c2ccc(OC)cc2)cc1 [[5-(R)-(3-guanidino-propyl)-2,4-dioxo-imidazolin-3-yl]acetyl Asp 4,4'-dimethoxybenzhydrylamide] |
